This note sets out measurements from patent US20060173048A1, “Imidazole derivatives” (priority 2005, published 2006).

As to `Cc1ccc(-c2c(-c3ccncc3)nc(-c3c(Cl)cccc3Cl)n2C)cc1` [Example 1, 4-[2-(2,6-Dichloro-phenyl)-1-methyl-5-(4-methyl-phenyl)-1H-imidazol-4-yl]-pyridine], the melting point is 214 to 217 °C.
The result for `Cc1ccc(-c2c(-c3ccncc3)nc(-c3c(C)cc(C)cc3C)n2C)cc1` [Example 2, 4-[1-Methyl-5-(4-methyl-phenyl)-2-(2,4,6-trimethyl-phenyl)-1H-imidazol-4-yl]-pyridine] reads 204 to 207 °C.
The figure for `CCn1c(-c2c(C)cc(C)cc2C)nc(-c2ccncc2)c1-c1ccc(C)cc1` [Example 4, 4-[1-Ethyl-5-(4-methyl-phenyl)-2-(2,4,6-trimethyl-phenyl)-1H-imidazol-4-yl]-pyridine] is 137 to 140 °C; for `CCn1c(-c2c(Cl)cccc2Cl)nc(-c2ccncc2)c1-c1ccc(Cl)cc1` [Example 5, 4-[5-(4-Chloro-phenyl)-2-(2,6-dichloro-phenyl)-1-ethyl-1H-imidazol-4-yl]-pyridine] it is 193 to 196 °C; for `CCn1c(-c2c(C)cc(C)cc2C)nc(-c2ccncc2)c1-c1ccc(Cl)cc1Cl` [Example 6, 4-[1-Ethyl-5-(2,4-dichloro-phenyl)-2-(2,4,6-trimethyl-phenyl)-1H-imidazol-4-yl]-pyridine] it is 191 to 193 °C.
`CCn1c(-c2c(C)cc(C)cc2C)nc(-c2ccncc2)c1-c1ccc(C(C)(C)C)cc1` [Example 7, 4-[5-(4-tert-Butyl-phenyl)-1-ethyl-2-(2,4,6-trimethyl-phenyl)-1H-imidazol-4-yl]-pyridine] registered a melting point of 202 to 205 °C.
The figure for `CCn1c(-c2ccccc2C)nc(-c2ccncc2)c1-c1ccc(Cl)cc1` [Example 8, 4-[5-(4-Chloro-phenyl)-1-ethyl-2-(2-methyl-phenyl)-1H-imidazol-4-yl]-pyridine] is 173 to 175 °C; for `CCn1c(-c2ccccc2)nc(-c2ccncc2)c1-c1ccc(Cl)cc1` [Example 9, 4-[5-(4-Chloro-phenyl)-1-ethyl-2-phenyl-1H-imidazol-4-yl]-pyridine] it is 267 to 270 °C.
The figure for `CCn1c(-c2c(C)cc(C)cc2C)nc(-c2ccncc2)c1-c1ccc(F)cc1` [Example 10, 4-[1-Ethyl-5-(4-fluoro-phenyl)-2-(2,4,6-trimethyl-phenyl)-1H-imidazol-4-yl]-pyridine] is 194 to 196 °C; for `CCn1c(-c2c(C)cc(C)cc2C)nc(-c2ccncc2)c1-c1ccc(Cl)cc1` [Example 12, 4-[5-(4-Chloro-phenyl)-1-ethyl-2-(2,4,6-trimethyl-phenyl)-1H-imidazol-4-yl]-pyridine] it is 226 to 227 °C; for `CCn1c(-c2c(C)cc(C)cc2C)nc(-c2ccncc2)c1-c1ccc(C(F)(F)F)cc1` [Example 13, 4-[1-Ethyl-5-(4-trifluoromethyl-phenyl)-2-(2,4,6-trimethyl-phenyl)-1H-imidazol-4-yl]-pyridine] it is 227 to 228 °C.
The figure for `CCn1c(-c2c(C)cccc2C)nc(-c2ccncc2)c1-c1ccc(Cl)cc1` [Example 14, 4-[5-(4-Chloro-phenyl)-2-(2,6-dimethyl-phenyl)-1-ethyl-1H-imidazol-4-yl]-pyridine] is 171 to 173 °C; for `CCn1c(-c2ccccc2Cl)nc(-c2ccncc2)c1-c1ccc(Cl)cc1` [Example 15, 4-[5-(4-Chloro-phenyl)-2-(2-chloro-phenyl)-1-ethyl-1H-imidazol-4-yl]-pyridine] it is 144 to 147 °C.
For `CCn1c(-c2ccccc2Br)nc(-c2ccncc2)c1-c1ccc(Cl)cc1` [Example 16, 4-[2-(2-Bromo-phenyl)-5-(4-chloro-phenyl)-1-ethyl-1H-imidazol-4-yl]-pyridine], the melting point lay in the range of 144 to 147 °C.
The figure for `CCn1c(-c2c(C)cccc2Cl)nc(-c2ccncc2)c1-c1ccc(Cl)cc1` [Example 17, 4-[2-(2-Chloro-6-methyl-phenyl)-5-(4-chloro-phenyl)-1-ethyl-1H-imidazol-4-yl]-pyridine] is 188 to 190 °C.
